The structures appear in SMILES notation. Read-outs that look alike come from different tables or passages of the source. Some results are limits rather than exact numbers.

Data on 28 molecules can be found in US20250230171A1 (MOMA Therapeutics, Inc., priority 2023, published 2025).

In one assay the test system is DLD1 WT cells. Put plainly: 7-day cell viability assay (CellTiter-Glo), DLD1 parental (WT). As to conditions: Homo sapiens, DLD-1, 168 h, n=2. Type of assay: cell-based, human. For orientation: Cellular ATP, detected with luciferase, serves as a proxy for viable cell number.
Assay [1] has as its target biotinylated Avi-POLθ[2-894] (Homo sapiens (Human), UniProt O75417). Kind of assay: POLθ ATPase assay (ADP-Glo). Conditions: n=2, read-out: Biochemical ATPase ADPGlo IC50. For orientation: ADP-Glo first removes unused ATP, then detects ADP through luciferase.
The next assay concerns DLD1 BRCA2 (−/−) cells. Kind of assay: 7-day cell viability assay (CellTiter-Glo), DLD1 BRCA2 (−/−). Type of assay: cell-based, human. Conditions: Homo sapiens, DLD-1, 168 h, n=2, read-out: Viability IC50 (uM) DLD1 BRCA2 null. An outline of the steps: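 7-day growth assay in DLD1 cells with or without BRCA2; seeding densities chosen to keep log-linear growth. Compound: 10 uM top, 3-fold, 9 points. Endpoint: CTG ATP luminescence at RT.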

Chain of biotinylated Avi-POLθ[2-894] (O75417 2-894): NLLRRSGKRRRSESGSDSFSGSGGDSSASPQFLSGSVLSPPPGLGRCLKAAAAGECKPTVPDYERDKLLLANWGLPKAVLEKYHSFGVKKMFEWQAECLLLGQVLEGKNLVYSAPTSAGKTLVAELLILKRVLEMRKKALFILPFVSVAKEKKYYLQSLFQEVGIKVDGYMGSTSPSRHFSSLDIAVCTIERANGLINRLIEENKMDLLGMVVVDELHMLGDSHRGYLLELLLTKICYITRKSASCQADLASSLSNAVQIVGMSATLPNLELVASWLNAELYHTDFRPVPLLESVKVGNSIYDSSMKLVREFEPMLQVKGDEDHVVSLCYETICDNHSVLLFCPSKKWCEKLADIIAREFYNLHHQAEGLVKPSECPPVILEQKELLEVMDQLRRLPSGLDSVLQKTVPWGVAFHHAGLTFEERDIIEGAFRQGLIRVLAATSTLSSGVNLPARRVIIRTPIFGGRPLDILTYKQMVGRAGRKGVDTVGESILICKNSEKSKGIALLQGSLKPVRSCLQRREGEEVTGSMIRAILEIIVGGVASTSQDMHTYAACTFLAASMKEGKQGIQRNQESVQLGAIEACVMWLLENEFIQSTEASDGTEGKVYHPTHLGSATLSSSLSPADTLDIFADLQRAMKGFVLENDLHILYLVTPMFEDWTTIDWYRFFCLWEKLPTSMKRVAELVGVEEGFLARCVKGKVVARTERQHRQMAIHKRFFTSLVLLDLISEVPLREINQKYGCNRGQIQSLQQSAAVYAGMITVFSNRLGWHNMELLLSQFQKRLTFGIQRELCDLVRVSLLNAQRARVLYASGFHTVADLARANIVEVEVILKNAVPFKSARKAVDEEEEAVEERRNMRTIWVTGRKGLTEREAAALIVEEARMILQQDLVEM

`COc1cnc(Cl)cc1-c1cc(C)ncc1C(=O)Nc1nc2c(s1)CN(C(=O)c1nc(C)co1)C2` [Example 67, 2′-chloro-5′-methoxy-6-methyl-N-(5-(4-methyloxazole-2-carbonyl)-5,6-dihydro-4H-pyrrolo[3,4-d]thiazol-2-yl)-[4,4′-bipyridine]-3-carboxamide]: the IC50 (as a rule, the concentration that inhibits the measured activity by half) lay within 0.5 to 2 µM in the assay with DLD1 WT cells (7-day viability), 0.001 to 0.015 µM in assay [1] and 0.001 to 0.1 µM in the assay with DLD1 BRCA2 (−/−) cells (7-day viability).
The matching figures for `COc1ccc(C#N)cc1-c1cc(C)ncc1C(=O)Nc1nc2c(s1)CN(C(=O)c1ccc(C)cn1)C2` [Example 304]: at least 10 µM, 0.001 to 0.015 µM and 0.1 to 0.25 µM.
On the same counts, the results for `COc1cnc(Cl)cc1-c1cc(C)ncc1C(=O)Nc1nc2c(s1)CN(C(=O)c1cn(C(C)C)nc1C)C2` [Example 175] are at least 10 µM, 0.001 to 0.015 µM and at least 2 µM.
On the same counts, the results for `CCc1cc(C(=O)N2Cc3nc(NC(=O)c4cnc(C)cc4-c4cc(Cl)ncc4OC)sc3C2)nn1C` [Example 58, 2′-chloro-N-(5-(5-ethyl-1-methyl-1H-pyrazole-3-carbonyl)-5,6-dihydro-4H-pyrrolo[3,4-d]thiazol-2-yl)-5′-methoxy-6-methyl-[4,4′-bipyridine]-3-carboxamide] are at least 10 µM, 0.001 to 0.015 µM and 0.001 to 0.1 µM.
As to `COc1cnc(Cl)cc1-c1cc(C)ncc1C(=O)Nc1nc2c(s1)CN(C(=O)c1nn(C)c(C)c1F)C2` [Example 66], the IC50 was 5 to 10 µM in the assay with DLD1 WT cells (7-day viability), 0.001 to 0.015 µM in assay [1] and 0.001 to 0.1 µM in the assay with DLD1 BRCA2 (−/−) cells (7-day viability).
The matching figures for `COc1ccccc1-c1cc(C)ncc1C(=O)Nc1nc2c(s1)CN(C(=O)C1CC1)C2`: at least 10 µM, 0.15 to 0.9 µM and at least 2 µM.
On the same counts, the results for `COc1cnc(Cl)cc1-c1cc(C)ncc1C(=O)Nc1nc2c(s1)CN(C(=O)c1ccc(OC)c3ccnn13)C2` [Example 402] are at least 10 µM, 0.001 to 0.015 µM and 0.001 to 0.1 µM.
The matching figures for `COc1ccc(C#N)cc1-c1cc(C)ncc1C(=O)Nc1nc2c(s1)CN(C(=O)C1CC(OC(F)F)C1)C2` (stereo not drawn) [Example 179]: at least 10 µM, 0.001 to 0.015 µM and 0.001 to 0.1 µM.
Take `COc1cc(C(=O)N2Cc3nc(NC(=O)c4cnc(C)cc4-c4cc(Cl)ncc4OC)sc3C2)n(C)n1` [Example 90, 2′-chloro-5′-methoxy-N-(5-(3-methoxy-1-methyl-1H-pyrazole-5-carbonyl)-5,6-dihydro-4H-pyrrolo[3,4-d]thiazol-2-yl)-6-methyl-[4,4′-bipyridine]-3-carboxamide]: the IC50 is at least 10 µM with DLD1 WT cells (7-day viability), 0.001 to 0.015 µM in assay [1] and 0.001 to 0.1 µM with DLD1 BRCA2 (−/−) cells (7-day viability).
On the same counts, the results for `COc1cnc(Cl)cc1-c1cc(C)ncc1C(=O)Nc1nc2c(s1)CN(C(=O)c1ccc(Cl)cn1)C2` [Example 11, 2′-chloro-N-(5-(5-chloropicolinoyl)-5,6-dihydro-4H-pyrrolo[3,4-d]thiazol-2-yl)-5′-methoxy-6-methyl-[4,4′-bipyridine]-3-carboxamide] are 2 to 5 µM, 0.001 to 0.015 µM and 0.001 to 0.1 µM.
In the case of `COc1ccc(C(=O)N2Cc3nc(NC(=O)c4cnc(C)cc4-c4cc(Cl)ncc4OC)sc3C2)cn1`, the IC50 is at least 10 µM in the assay on DLD1 WT cells (7-day CellTiter-Glo); 0.001 to 0.015 µM in assay [1] (POLθ ATPase, ADP-Glo); 0.001 to 0.1 µM in the assay on DLD1 BRCA2 (−/−) cells (7-day CellTiter-Glo).
On the same counts, the results for `COc1cnc(Cl)cc1-c1cc(C)ncc1C(=O)Nc1nc2c(s1)CN(C(=O)c1ccnc(C)n1)C2` are 5 to 10 µM, 0.001 to 0.015 µM and 0.001 to 0.1 µM.
Consider `COc1cnc(Cl)cc1-c1cc(C)ncc1C(=O)Nc1nc2c(s1)CN(C(=O)c1cc(Cl)n(C)n1)C2` [Example 73, 2′-chloro-N-(5-(5-chloro-1-methyl-1H-pyrazole-3-carbonyl)-5,6-dihydro-4H-pyrrolo[3,4-d]thiazol-2-yl)-5′-methoxy-6-methyl-[4,4′-bipyridine]-3-carboxamide], for which the IC50 fell in the range of 0.001 to 0.5 µM with DLD1 WT cells (7-day viability), 0.001 to 0.015 µM in assay [1] and 0.001 to 0.1 µM in the assay on DLD1 BRCA2 (−/−) cells (7-day viability).
On the same counts, the results for `COc1cnc(Cl)cc1-c1cc(C)ncc1C(=O)Nc1nc2c(s1)CN(C(=O)C1CC(C(F)F)C1)C2` (mixture of isomers) [Example 201] are at least 10 µM, 0.001 to 0.015 µM and 0.1 to 0.25 µM.
On to `COc1cnc(Cl)cc1-c1cc(C)ncc1C(=O)Nc1nc2c(s1)CN(C(=O)c1ccc(C(F)(F)F)nc1OC)[C@H]2C` (single isomer, unassigned) [Example 1041, (S or R)-2′-chloro-5′-methoxy-N-(5-(2-methoxy-6-(trifluoromethyl)nicotinoyl)-4-methyl-5,6-dihydro-4H-pyrrolo[3,4-d]thiazol-2-yl)-6-methyl-[4,4′-bipyridine]-3-carboxamide], for which the 50% inhibitory concentration (IC50) in the assay on DLD1 WT cells (7-day CellTiter-Glo) is at least 10 µM; in assay [1] (POLθ ATPase, ADP-Glo) it was 0.001 to 0.015 µM; with DLD1 BRCA2 (−/−) cells (7-day CellTiter-Glo), 0.001 to 0.1 µM.
Turning to `COc1ccc(C#N)cc1-c1cc(C)ncc1C(=O)Nc1nc2c(s1)CC(Nc1ccccc1)CC2` (stereo not drawn), the half-inhibitory concentration (IC50) in the assay on DLD1 WT cells (7-day viability) is at least 10 µM; in assay [1] it was 0.001 to 0.015 µM; in the assay with DLD1 BRCA2 (−/−) cells (7-day viability), 0.1 to 0.25 µM.
As for `COc1nc(OC)c(-c2cc(C)ncc2C(=O)Nc2nc3c(s2)CN(C(=O)c2ccc(C(F)(F)F)nc2OC)C3)cc1Cl` [Example 1036, 5-chloro-2,6-dimethoxy-N-(5-(2-methoxy-6-(trifluoromethyl)nicotinoyl)-5,6-dihydro-4H-pyrrolo[3,4-d]thiazol-2-yl)-6′-methyl-[3,4′-bipyridine]-3′-carboxamide], the IC50 in the assay on DLD1 WT cells (7-day CellTiter-Glo) was at least 10 µM; in assay [1] (POLθ ATPase, ADP-Glo), 0.001 to 0.015 µM; in the assay with DLD1 BRCA2 (−/−) cells (7-day CellTiter-Glo), 0.001 to 0.1 µM.
Turning to `COc1ccc(C#N)cc1-c1cc(C)ncc1C(=O)Nc1nc2c(s1)CN(S(=O)(=O)c1ccccn1)C2` [Example 308], the half-inhibitory concentration (IC50) in the assay on DLD1 WT cells (7-day viability) is at least 10 µM; in assay [1] it was 0.015 to 0.05 µM; with DLD1 BRCA2 (−/−) cells (7-day viability), at least 2 µM.
On the same counts, the results for `COc1cnc(Cl)cc1-c1cc(C)ncc1C(=O)Nc1nc2c(s1)CN(C(=O)[C@H]1C[C@H](OC(F)(F)F)C1)C2` [Example 26, 2′-chloro-5′-methoxy-6-methyl-N-(5-((1r,3r)-3-(trifluoromethoxy)cyclobutane-1-carbonyl)-5,6-dihydro-4H-pyrrolo[3,4-d]thiazol-2-yl)-[4,4′-bipyridine]-3-carboxamide] are 5 to 10 µM, 0.001 to 0.015 µM and 0.001 to 0.1 µM.
The matching figures for `COc1cnc(Cl)cc1-c1cc(C)ncc1C(=O)Nc1nc2c(s1)CN(C(=O)c1ccc(Cl)nc1)C2` [Example 13, 2′-chloro-N-(5-(6-chloronicotinoyl)-5,6-dihydro-4H-pyrrolo[3,4-d]thiazol-2-yl)-5′-methoxy-6-methyl-[4,4′-bipyridine]-3-carboxamide]: at least 10 µM, 0.001 to 0.015 µM and 0.001 to 0.1 µM.
With `COc1cnc(Cl)cc1-c1cc(C)ncc1C(=O)Nc1nc2c(s1)CN(C(=O)[C@H]1C[C@H](C(F)(F)F)C1)C2` [Example 164, 4-(5-Cyano-2-methoxyphenyl)-6-methyl-N-(5-(pyridin-3-ylsulfonyl)-5,6-dibydro-4H-pyrrolo[3,4-d]thiazol-2-yl)nicotinamide], the half-maximal inhibitory concentration (IC50) with DLD1 WT cells (7-day viability) is at least 10 µM; in assay [1], 0.001 to 0.015 µM; in the assay on DLD1 BRCA2 (−/−) cells (7-day viability) it was 0.1 to 0.25 µM.
For `COc1cnc(Cl)cc1-c1cc(C)ncc1C(=O)Nc1nc2c(s1)CN(C(=O)c1ccc(O)cn1)C2` [Example 174], the half-maximal inhibitory concentration (IC50) is at least 10 µM with DLD1 WT cells (7-day viability), 0.001 to 0.015 µM in assay [1] and 0.1 to 0.25 µM in the assay with DLD1 BRCA2 (−/−) cells (7-day viability).
Regarding `COc1cnc(C(F)F)nc1-c1cc(C)ncc1C(=O)Nc1nc2c(s1)CN(C(=O)c1ccc(C(F)(F)F)nc1OC)C2` [Example 1042, 4-(2-(difluoromethyl)-5-methoxypyrimidin-4-yl)-N-(5-(2-methoxy-6-(trifluoromethyl)nicotinoyl)-5,6-dihydro-4H-pyrrolo[3,4-d]thiazol-2-yl)-6-methylnicotinamide], the IC50 was at least 10 µM in the assay with DLD1 WT cells (7-day CellTiter-Glo); 0.001 to 0.015 µM in assay [1] (POLθ ATPase, ADP-Glo); 0.001 to 0.1 µM in the assay with DLD1 BRCA2 (−/−) cells (7-day CellTiter-Glo).
With `COc1cnc(Cl)cc1-c1cc(C)ncc1C(=O)Nc1nc2c(s1)CN(C(=O)[C@@H]1C[C@H]1C(F)F)C2` [Example 3, 2′-chloro-N-(5-((1R,2R)-2-(difluoromethyl)cyclopropane-1-carbonyl)-5,6-dihydro-4H-pyrrolo[3,4-d]thiazol-2-yl)-5′-methoxy-6-methyl-[4,4′-bipyridine]-3-carboxamide], the IC50 in the assay on DLD1 WT cells (7-day viability) lay within 2 to 5 µM; in assay [1], 0.001 to 0.015 µM; in the assay on DLD1 BRCA2 (−/−) cells (7-day viability), 0.001 to 0.1 µM.
On the same counts, the results for `COc1cnc(Cl)cc1-c1cc(C)ncc1C(=O)Nc1nc2c(s1)CN(C(=O)c1cnn3c1CCC3)C2` [Example 4, 2′-chloro-N-(5-(5,6-dihydro-4H-pyrrolo[1,2-b]pyrazole-3-carbonyl)-5,6-dihydro-4H-pyrrolo[3,4-d]thiazol-2-yl)-5′-methoxy-6-methyl-[4,4′-bipyridine]-3-carboxamide] are 0.001 to 0.5 µM, 0.001 to 0.015 µM and 0.001 to 0.1 µM.
In the case of `COc1cnc(Cl)cc1-c1cc(C)ncc1C(=O)Nc1nc2c(s1)CN(C(=O)c1ccc(Cl)c(OC)n1)C2` [Example 421], the concentration for half-maximal inhibition (IC50) was 2 to 5 µM in the assay with DLD1 WT cells (7-day CellTiter-Glo); 0.001 to 0.015 µM in assay [1] (POLθ ATPase, ADP-Glo); 0.001 to 0.1 µM in the assay with DLD1 BRCA2 (−/−) cells (7-day CellTiter-Glo).
As to `COc1ccc(C#N)cc1-c1cc(C)ncc1C(=O)Nc1nc2c(s1)CN(C(=O)c1ccnc(C)c1)C2`, the results for the IC50 (in the assay with DLD1 WT cells (7-day viability); in assay [1]; in the assay on DLD1 BRCA2 (−/−) cells (7-day viability)) were at least 10 µM, 0.001 to 0.015 µM and at least 2 µM, respectively.
As for `COc1cnc(Cl)cc1-c1cc(C)ncc1C(=O)Nc1nc2c(s1)CN(C(=O)c1nccn3nccc13)C2`, the IC50 with DLD1 WT cells (7-day CellTiter-Glo) was at least 10 µM; in assay [1] (POLθ ATPase, ADP-Glo), 0.001 to 0.015 µM; with DLD1 BRCA2 (−/−) cells (7-day CellTiter-Glo) it was 0.001 to 0.1 µM.
